Test results as given in patent US7932022B2, “Dual-labeled molecular constructs for detection of biochemical reactions” (BioArray Solutions, Ltd., priority 2002, dated 2011).
Like-named read-outs stand apart in the source and are kept apart here. Where no end group is shown, it is not given here. [ ]: non-standard residue; d: D form. The star is where a group is joined. Biotin = O=C1N[C@H]2[C@H](CS[C@H]2CCCCC(=O)*)N1; pY = N[C@@H](Cc1ccc(OP(=O)(O)O)cc1)C(=O)O

What was measured:
[1] = test system: monoclonal antibodies specific for the phosphorylation modification; settings: tyramide detection
Source text: […]

[2] = test system: phosphorylated peptide-specific monoclonal mouse IgG antibodies; settings: three-antibody detection
Source text: After coupling, the particles were washed by using PBST. Then, all of the peptide-functionalized beads were combined into a test tube for assembly of microparticle array according to known prior art methods, such as LEAPS, and direct disposition assembly method previously described in Provisional Application Ser. No. 60/343,621, filed Dec. […] The assembled microparticle array is blocked by using 1% BSA in PBST. For immunodetection of phosphorylated peptides on the array, the chip is incubated with monoclonal antibodies specific for the phosphorylation modification. The incubation is carried out in a humid chamber for binding of the antibodies to the phosphorylated peptides. The unbound antibodies are washed away by using PBST. For the purpose of signal amplification, the chip is incubated with secondary antibodies specific for the primary monoclonal antibodies bound on the arrays. The signal may be further amplified by incubation of the chips with fluorescent-labeled antibodies specific for the secondary antibodies. After washing with PBST, the array is examined by using a fluorescent microscope according to known prior art methods, such as the READ assays.
The peptide-functionalized microparticles are assembled into a particle array. The chip was incubated with phosphorylated peptide-specific monoclonal mouse IgG antibodies followed by incubation with mouse IgG-specific secondary antibodies, and then Cy5-labeled third antibodies for detection using a fluorescent microscope. Fluorescence was detected by Cy5 signals. […] The error bars in FIG. 22 represent standard deviation of the respective mean intensities.

[3] = test system: phosphorylated peptide-specific monoclonal mouse IgG antibodies; settings: three-antibody detection, six bead types

“Biotin-CEGPWLEEEEEA[pY]GWMDFK-Biotin [Peptide-P-2]” was tested, and the “FITC signal intensity at 1000 ms integration” value (“FITC signal intensity” below) [1] was 15,000 units, the “Cy5 signal intensity at 1000 ms integration” value (shortened to “Cy5 signal intensity”) [2] was 15,500 units and the “Cy5 signal intensity” value [3] was “approximately 14,000 units”.

In the case of “Biotin-CKVEKIGEGT[pY]GVVYK [Peptide-P-1]”, the “Cy5 signal intensity” value [3] is reported as “approximately 14,000 units”.

With Biotin-CRRLIEDAE[pY]AARGK [Peptide-P-3] the “Cy5 signal intensity” value [3] was “approximately 14,000 units”.

With Biotin-KVEKIGEGTYGVVYK [Ty-1] the “FITC signal intensity” value [1] was “approximately 700 units”, the “Cy5 signal intensity” value [2] was “approximately 1400 units” and the “Cy5 signal intensity” value [3] was “approximately 1000 units”.

In the case of Biotin-KVEKIGEGT[pY]GVVYK [Ty-P-1], the “FITC signal intensity” value [1] is reported as 11,000 units, the “Cy5 signal intensity” value [2] is reported as 15,000 units and the “Cy5 signal intensity” value [3] is reported as “approximately 14,000 units”.
